Test results taken from article PMC4519180, “Fluorescence Polarization Screening Assays for Small Molecule Allosteric Modulators of ABL Kinase Function” (PLoS ONE, 2015).

Key:
ABL SH3 domain = target: T1, ABL SH3 domain (Homo sapiens, UniProt P00519); assay: FP assay with isolated ABL SH3 domain and p41 probe; format: binding; details: significant inhibition at 3 and 10 μM
T1 construct: we performed FP assays with the N32L protein as well as the isolated ABL SH3 domain; made in house
Procedure: (§1) Fluorescence Polarization (FP) experiments were performed in quadruplicate in low volume black 384 well plates with a non-binding surface (Corning; catalog # 3676). Peptides and proteins were added to each well in FP assay buffer (20 mM Tris-HCl, pH 8.3) for a final assay volume of 20 μL and mixed by shaking for 5 min at room temperature. The FP signal in millipolarization (mP) units was measured at an excitation wavelength of 485 nm and emission wavelength of 515 nm in a SpectraMax M5 microplate reader (Molecular Devices) using the Softmax Pro software (version 5.4.1). Each plate was read three times and the values were averaged prior to analysis. Raw fluorescence intensity was also read at the same wavelengths for each assay.

[1] = target: T2, ABL N32L protein (Ncap-SH3-SH2-linker) (Homo sapiens, UniProt P00519, DEL15-56); assay: Fluorescence polarization (FP) assay, ABL N32L protein with p41 probe peptide; format: binding
T2 construct: corresponding to residues 2–255 with an internal deletion of residues 15–56; Gly-His6 (GHHHHHH) (N); made in house; host or cells: E. coli Rosetta2(DE3)pLysS
Procedure: as §1
A collection of 1200 FDA-approved small molecules (Prestwick Chemical, Inc.) was used in a pilot screen with the FP assay. Each library compound was screened at 10 μM and a final DMSO concentration of 1%. Compounds were added to 384-well assay plates first, followed by a pre-mixed complex of the ABL N32L protein (25 μg) and the p41 probe peptide (50 nM). Each plate also contained twenty-eight wells of the wild type N32L protein plus p41 probe and DMSO as positive controls as well as twenty-eight wells of mutant ABL N32L-W118A protein plus p41 probe peptide and DMSO as negative controls. Each plate was mixed on the shaker for 5 min, read three consecutive times, and the average FP signal for each well was calculated. To identify potential hit compounds, three measures were used: (i) average FP signal; (ii) control normalized percent inhibition, in which the FP signal with each compound was normalized to the mean FP signal of the positive and negative plate controls according to the formula: [(sample FP–mean FPWT) / (mean FPW118A –mean FPWT) x 100] [22, 23]; (iii) Z score, a statistical measure of variation of the mean sample FP signal that is independent of plate controls, calculated according to the formula: [(sample FP–mean FPsamples) / standard deviationsamples] [22, 23]. […]

[2] = target: T3, wild type ABL kinase core (Homo sapiens, UniProt P00519, DEL15-56); assay: ADP Quest kinetic kinase assay, wild type ABL core; format: biochemical; details: for Activation constant Kact: concentration giving half-maximum velocity; for Activation constant Kact / Vmax: mean ± SE; for Vmax: maximal reaction velocity with activator; for Vmax/Kact: overall enhancement of catalytic efficiency
T3 construct: ABL core proteins (residues 1–531 with an internal deletion of residues 15–56); made in house; host or cells: Sf9 insect cells
Procedure: (§2) The ADP Quest assay (DiscoverRx), which fluorimetrically measures kinase activity as the production of ADP, was used to determine ABL kinase reaction velocities. Assays were performed in quadruplicate in black 384 well plates (Corning #3571) in reaction volumes of 10 μL/well. Recombinant kinase protein concentrations were fixed at 40 ng/well for the wild type ABL core, 9 ng/well for the high affinity linker ABL core, and 250 ng/well for the SRC family kinase HCK. The Tyr2 substrate peptide for ABL (EAIYAAPFAKKK) as well as the SFK substrate peptide (YIYGSFK) were dissolved in the ADP Quest assay buffer (15 mM HEPES, pH 7.4, 20 mM NaCl, 1 mM EGTA, 0.02% Tween-20, 10 mM MgCl2, 0.1 mg/ml bovine γ-globulins), while ATP stocks were prepared in 10 mM Tris-HCl (pH 7.0). Each kinase reaction was initiated by the addition of ATP and read at 5 min intervals for 3 h in a SpectraMax M5 Microplate reader (Molecular Devices). To determine the substrate Km for ABL kinases, the ATP concentration was fixed at 50 μM and the substrate peptide was serially diluted from 0.2–200 μM. For ABL kinase ATP Km determination, the substrate concentration was fixed at the respective substrate Km for each of the kinases, and the ATP concentration was titrated over the range of 0.2–200 μM. The resulting progress curves were analyzed according to the method of Moroco et al.. Briefly, raw fluorescence data were corrected for non-enzymatic ADP production (no kinase or substrate control) and kinase auto-phosphorylation (rate observed in the absence of substrate), and converted to pmol ADP produced using an ADP standard curve generated under the same reaction conditions. The resulting values were normalized to the amount of kinase present in each reaction, and plotted against time. The linear portion of each progress curve was fit by regression analysis to determine the reaction velocity. Substrate and ATP Km values were determined by non-linear regression analysis using the Michaelis-Menten equation (GraphPad Prism 6).
Half-maximal effective concentrations (EC50) and activation constants (Kact) were determined for the ABL kinase core by both dipyridamole and the known ABL activator, DPH (5-(1,3-diaryl-1H-pyrazol-4-yl)hydantoin; Sigma-Aldrich). The kinase was pre-incubated with each compound (10 nM to 100 μM) for 30 min at room temperature, followed by kinase assay with the substrate and ATP concentrations fixed at their respective Km values. The rate of each reaction was plotted against compound concentration, and analyzed by non-linear regression analysis (GraphPad Prism 6) to determine the EC50 value. To determine the activation constant Kact, the basal rate of kinase activity was subtracted from the rates of reaction in the presence of each compound concentration, and plotted as a function of compound concentration. The resulting curves obeyed saturation kinetics and were best-fit by the following equation [19]: Va= Vact[L]/(Kact+[L]) where Va is the reaction velocity in the presence of each activator concentration, Vact is the maximal reaction velocity, L is the activator concentration, and Kact is the activator concentration that yields half-maximal reaction velocity.

[3] = system: wild type ABL core expressed in 293T cells; assay: ABL core autophosphorylation in transfected 293T cells (immunoblot); format: cell-based, human; details: for Effect on ABL phosphorylation (pY412, pY245, pY89), compound alone: compound 142 1–10 μM or DPH 10 μM
Procedure: ABL core proteins were expressed in human 293T cells and analyzed for kinase activity as described elsewhere. Briefly, cells were grown overnight in 60 mm plates, transfected with an expression vector for the wild type ABL core, and treated with compounds 2 h post- transfection. Cells were lysed by sonication 24 h later, and cell lysates clarified by centrifugation. ABL was immunoprecipitated via the C-terminal His-tag, resolved by SDS-PAGE, and transferred to nitrocellulose membranes for immunoblot analysis with antibodies to the ABL protein and the three autophosphorylation sites: pTyr412 (activation loop), pTyr245 (SH2-kinase linker), and pTyr89 (SH3 domain).

[4] = target: T3, wild type ABL kinase core; assay: ADP Quest kinetic kinase assay, wild type ABL core; format: biochemical; details: 30 min pre-incubation; ATP and substrate at Km; mean ± SE, triplicate; read-out: EC50 for activation of ABL core
isolated ABL SH3 domain = target: T4, isolated ABL SH3 domain (Homo sapiens, UniProt P00519); assay: Surface plasmon resonance, isolated SH3 domain; format: binding; details: SPR, data not shown
T4 construct: we performed FP assays with the N32L protein as well as the isolated ABL SH3 domain; made in house
Procedure: (§3) SPR analysis was performed on a BIAcore T100 instrument (GE Healthcare) using four-channel CM5 biosensor chips at 25°C. Recombinant purified ABL proteins were covalently attached to the CM5 chip via standard amine coupling chemistry. Compound 142 (dipyridamole; Prestwick Chemical) was prepared in 20 mM Tris-HCl, pH 8.3, 150 mM NaCl and 0.1% DMSO and flowed past the immobilized ABL protein channel and a reference channel on the biosensor at a flow rate of 50 μL/min for 3 min over a range of concentrations. The initial binding reaction was followed by dissociation for 5 min, and the chip surface was regenerated using 20 mM Tris-HCl, pH 8.3, 150 mM NaCl, 0.1% DMSO, 0.05% Tween 20 and 1 mM DTT at a flow rate of 50 μL/min for 10 min. Sensorgrams were recorded in triplicate, corrected for buffer effects, and fitted with the 1:1 Langmuir binding model using the BIAevaluation software suite version 2.0.4 (GE Healthcare).

ABL N32L WT protein = target: T5, ABL N32L WT protein (Homo sapiens, UniProt P00519, DEL15-56); assay: Differential scanning fluorimetry; format: binding; details: compound 100 μM, N32L 1 μM, vs DMSO
T5 construct: corresponding to residues 2–255 with an internal deletion of residues 15–56; Gly-His6 (GHHHHHH) (N); made in house; host or cells: E. coli Rosetta2(DE3)pLysS
Procedure: Hit compounds (100 μM) were pre-incubated with the ABL N32L WT protein (1 μM) for 30 minutes in bicine assay buffer (10 mM bicine, 150 mM NaCl, pH 8.0). SYPRO Orange (Sigma) was added at 5X final concentration and fluorimetry profiles were acquired with a StepOnePlus real-time quantitative PCR instrument (Applied Biosystems) and software (version 2.3). Assays were performed in duplicate in sealed MicroAmp Fast 96-well qPCR plates (Applied Biosystems), and control reactions without proteins were included to correct for background fluorescence. Assays were equilibrated at 25°C for 2 minutes, followed by an increase in temperature at the rate of 1% (1.6°C/min) to 99°C, with continuous data collection. Mean fluorescence intensities, after subtracting background fluorescence, were plotted against temperature. Non-linear regression analysis using the Boltzmann sigmoid function in GraphPad Prism 6 was used to determine the Tm values, the midpoint of the melt curve between the minimum and maximum fluorescence intensities.

[5] = system: ABL core with high-affinity linker (HAL); assay: ADP Quest kinetic kinase assay, high-affinity linker ABL core; format: biochemical, human; details: 10 μM; ATP and substrate at Km
Procedure: as §2, with “Recombinant kinase protein concentrations were fixed at 40 ng/well for the wild type ABL core, 9 ng/well for the high affinity linker ABL core, and 250 ng/well for the SRC family kinase HCK.” left out, “Tyr2” left out, “([…])” for “(YIYGSFK)”, “To determine the substrate Km for ABL kinases, the ATP concentration was fixed at 50 μM and the substrate peptide was serially diluted from 0.2–200 μM. For ABL kinase ATP Km determination, the substrate concentration was fixed at the respective substrate Km for each of the kinases, and the ATP concentration was titrated over the range of 0.2–200 μM.” left out, “The linear portion of each progress curve was fit by regression analysis to determine the reaction velocity.” left out

SRC-family kinase HCK = target: T6, SRC-family kinase HCK (Homo sapiens, UniProt P08631, Q523E/Q524E/Q525I); assay: ADP Quest kinetic kinase assay, HCK; format: biochemical; details: 1 μM; recombinant near-full-length downregulated HCK
T6 construct: made in house; host or cells: Sf9 insect cells
Procedure: The ADP Quest assay (DiscoverRx), which fluorimetrically measures kinase activity as the production of ADP, was used to determine ABL kinase reaction velocities. Assays were performed in quadruplicate in black 384 well plates (Corning #3571) in reaction volumes of 10 μL/well. Recombinant kinase protein concentrations were fixed at 40 ng/well for the wild type ABL core, 9 ng/well for the high affinity linker ABL core, and 250 ng/well for the SRC family kinase HCK. […] Each kinase reaction was initiated by the addition of ATP and read at 5 min intervals for 3 h in a SpectraMax M5 Microplate reader (Molecular Devices). […] The resulting progress curves were analyzed according to the method of Moroco et al.. Briefly, raw fluorescence data were corrected for non-enzymatic ADP production (no kinase or substrate control) and kinase auto-phosphorylation (rate observed in the absence of substrate), and converted to pmol ADP produced using an ADP standard curve generated under the same reaction conditions. […] Substrate and ATP Km values were determined by non-linear regression analysis using the Michaelis-Menten equation (GraphPad Prism 6).

ABL N32L protein = target: T7, ABL N32L protein (Homo sapiens, UniProt P00519, DEL15-56); assay: Surface plasmon resonance, immobilized ABL N32L; format: binding
T7 construct: corresponding to residues 2–255 with an internal deletion of residues 15–56; Gly-His6 (GHHHHHH) (N); made in house; host or cells: E. coli Rosetta2(DE3)pLysS
Procedure: as §3

T7 sequence (P00519 with tags, fused parts or gaps isoform P00519-2 DEL15-56): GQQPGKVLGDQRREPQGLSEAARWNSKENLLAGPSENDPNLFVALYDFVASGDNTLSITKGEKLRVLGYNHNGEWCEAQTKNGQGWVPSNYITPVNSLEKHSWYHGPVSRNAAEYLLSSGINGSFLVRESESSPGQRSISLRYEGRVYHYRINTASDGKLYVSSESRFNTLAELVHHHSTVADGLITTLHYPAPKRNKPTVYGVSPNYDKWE
T3 sequence (P00519 with tags, fused parts or gaps isoform P00519-2 DEL15-56): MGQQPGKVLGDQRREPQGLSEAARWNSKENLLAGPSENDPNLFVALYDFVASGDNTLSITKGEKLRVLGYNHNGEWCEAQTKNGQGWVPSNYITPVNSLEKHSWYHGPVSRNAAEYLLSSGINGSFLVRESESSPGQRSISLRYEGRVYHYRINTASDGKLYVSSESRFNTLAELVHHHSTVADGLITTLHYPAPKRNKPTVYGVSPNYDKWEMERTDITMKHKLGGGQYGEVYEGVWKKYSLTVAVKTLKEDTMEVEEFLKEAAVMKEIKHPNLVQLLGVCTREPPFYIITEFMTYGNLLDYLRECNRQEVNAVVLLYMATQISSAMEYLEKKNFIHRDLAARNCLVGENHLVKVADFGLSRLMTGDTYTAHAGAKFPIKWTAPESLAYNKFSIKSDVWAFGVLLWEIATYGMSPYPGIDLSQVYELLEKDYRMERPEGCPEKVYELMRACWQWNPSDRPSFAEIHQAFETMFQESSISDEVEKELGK
T4 sequence (P00519 61-121 limits assumed): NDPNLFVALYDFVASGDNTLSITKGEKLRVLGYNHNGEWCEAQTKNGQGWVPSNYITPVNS
T1 sequence (P00519 61-121 limits assumed): as above
T6 sequence (P08631 78-526 Q523E/Q524E/Q525I limits assumed): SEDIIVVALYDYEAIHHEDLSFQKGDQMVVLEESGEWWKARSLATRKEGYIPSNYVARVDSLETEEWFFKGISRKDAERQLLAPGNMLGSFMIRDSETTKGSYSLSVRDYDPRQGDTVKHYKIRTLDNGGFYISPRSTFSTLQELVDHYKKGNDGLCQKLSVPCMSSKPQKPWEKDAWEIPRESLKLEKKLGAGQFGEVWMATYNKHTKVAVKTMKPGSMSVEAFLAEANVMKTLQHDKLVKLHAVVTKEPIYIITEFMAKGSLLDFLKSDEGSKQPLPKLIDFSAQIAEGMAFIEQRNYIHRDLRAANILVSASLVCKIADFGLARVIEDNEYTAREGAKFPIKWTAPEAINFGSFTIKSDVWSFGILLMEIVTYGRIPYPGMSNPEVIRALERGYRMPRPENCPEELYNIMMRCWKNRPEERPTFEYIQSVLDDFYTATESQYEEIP

Row | Compound | FP signal with ABL SH3 protein over compound concentration range (ABL SH3 domain) | Inhibition of FP signal relative to DMSO controls (retest) ([1]; 10 μM, quadruplicate, screening assay conditions, p < 0.05) | FP signal with ABL N32L protein over compound concentration range ([1]; significant inhibition at 3 and 10 μM) | Stimulation of wild type ABL kinase activity relative to DMSO control ([2]; 10 μM, ATP and substrate at Km) | Activation constant Kact [2] [µM] | Vmax [2] [µM] | Vmax/Kact [2] | Effect on ABL phosphorylation (pY412, pY245, pY89), compound alone [3] | Effect on ABL phosphorylation (pY412, pY245, pY89) in the presence of DPH ([3]; compound 142 1–10 μM plus DPH 10 μM) | EC50 [4] [µM] | Kd (isolated ABL SH3 domain) [µM] | Decrease in Tm (ABL N32L WT protein) | Effect on kinase activity of ABL core with HAL substitution [5] | Effect on HCK reaction velocity (SRC-family kinase HCK) | kon (ABL N32L protein; 1:1 Langmuir binding model, 25°C, read-out: Association rate constant) [M⁻¹ s⁻¹] | koff (ABL N32L protein; 1:1 Langmuir binding model, 25°C, read-out: Dissociation rate constant) [s⁻¹] | Kd (ABL N32L protein; SPR, ABL N32L protein, read-out: Equilibrium dissociation constant (KD), ratio kd/ka) [µM] | Effect of unlabeled peptide on FP signal (competition) ([1]; p41 probe 50 nM, N32L 20 μg/well, unlabeled peptide 2.5 to 100 μM)
1 | OCCN(CCO)c1nc(N2CCCCC2)c2nc(N(CCO)CCO)nc(N3CCCCC3)c2n1 [compound 142, dipyridamole] | concentration-dependent decrease | significant inhibition | concentration-dependent decrease | about 40% | 0.4 ± 0.02 | 3.2 ± 0.28 | 8.00 | did not affect phosphorylation | remarkable enhancement of phosphorylation | 0.63 ± 0.07 | 30 | more than 2 °C | did not affect | no effect | 3870 ± 590000 | 0.027 ± 7.2e-05 | 6.9 | –
2 | QKEGERALPSIP [non-specific peptide] | – | – | – | – | – | – | – | – | – | – | – | – | – | – | – | – | – | no effect
3 | 5-(1,3-diaryl-1H-pyrazol-4-yl)hydantoin [DPH] | – | – | – | – | 1.02 ± 0.07 | 1.90 ± 0.4 | 1.86 | very small effect | – | 1.11 ± 0.5 | – | – | did not activate | – | – | – | – | –
